Assay results published in patent publication US5602099A, “δ opioid receptor antagonists” (Aktiebolaget Astra, priority 1993, dated 1997).
Where two headings read alike, the source gives them in different places.

Tests used:
[1] = biological target: T1, δ opioid receptors (Mus musculus, UniProt P32300); experiment: Mouse vas deferens (MVD) bioassay, antagonism of electrically evoked contraction inhibition by δ-selective agonists; assay type: tissue-based; settings: MVD assay, means of 3-8 determinations
T1 construct: Bioassays Using Isolated Organ Preparations; from tissue; host or cells: mouse vas deferens (isolated organ)
Description: (§1) a) Biosassys based on inhibition of electrically evoked contractions of the mouse vas deferens (MVD) and of the guinea pig ileum (GPI). In the GPI assay the opioid effect is primarily mediated by μ opioid receptors, whereas in the MVD assay the inhibition of the contractions is mostly due to interaction with δ opioid receptors.
(§2) The GPI and MVD bioassays were carded out as reported in P. W. Schiller et al., Biochem. Biophys. Res. Commun 85, 1332-1338 (1978) and J. Di Maio et al., J. Med. Chem. 25, 1432-1438 (1982). A log dose-response curve was determind with [Leu^5 ]enkephalin as standard for each ileum and vas preparation, and IC50 values of the compounds being tested were normalized according to A. A Waterfield et al., Eur. J. Pharmacol. 58, 11-18 (1979). […] These determinations were made with the MVD assay, using three different δ-selective agonists ([Leu^5 ] enkephalin, DPDPE and [D-Ala^2 ]deltorphin I].

[2] = biological target: T2, μ opioid receptors (Cavia porcellus, UniProt P97266); experiment: Guinea pig ileum (GPI) bioassay, inhibition of electrically evoked contractions; assay type: cell-based; settings: agonist potency
Description: as §1, §2

[3] = biological target: T2, μ opioid receptors; settings: literature value; cited from earlier work
[4] = Ke (nM) against [Leu5]Enkephalin, δ agonist [Leu5]enkephalin

T1 sequence (P32300 whole entry): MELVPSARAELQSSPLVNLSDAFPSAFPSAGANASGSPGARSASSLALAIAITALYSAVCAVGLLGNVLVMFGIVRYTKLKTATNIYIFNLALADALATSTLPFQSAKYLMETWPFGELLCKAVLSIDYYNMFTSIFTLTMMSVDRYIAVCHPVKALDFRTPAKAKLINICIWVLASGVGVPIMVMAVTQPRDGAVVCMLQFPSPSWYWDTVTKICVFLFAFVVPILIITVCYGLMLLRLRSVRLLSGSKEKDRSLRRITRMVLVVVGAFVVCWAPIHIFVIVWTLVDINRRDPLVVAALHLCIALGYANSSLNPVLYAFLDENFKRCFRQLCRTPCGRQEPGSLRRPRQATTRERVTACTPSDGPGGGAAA
T2 sequence (P97266 whole entry, looked up): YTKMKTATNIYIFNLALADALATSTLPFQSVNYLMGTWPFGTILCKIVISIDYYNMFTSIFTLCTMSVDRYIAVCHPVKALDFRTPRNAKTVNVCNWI

Compound | Kb ([1]; Ke (nM) against DPDPE, δ agonist DPDPE) | Kb ([1]; Ke (nM) against [D-Ala2]deltorphin I, δ agonist [D-Ala2]deltorphin I) | Kb [1, 4] | IC50 [2] | Kb ([1]; δ agonist DPDPE, read-out: Ke (nM) against DPDPE) | Kb ([1]; δ agonist [D-Ala2]deltorphin I, read-out: Ke (nM) against [D-Ala2]deltorphin I) | Ke (μ antagonist) in the guinea pig ileum (GPI) assay [3]
Cc1cc(O)cc(C)c1C[C@H](N)C(=O)N1Cc2ccccc2C[C@H]1CN[C@@H](Cc1ccccc1)C(=O)N[C@@H](Cc1ccccc1)C(N)=O [HDmtTic.psi.[CH2NH]PhePheNH2, H-Dmt-Tic.PSI.[CH2 --NH]Phe-Phe-NH2] | 0.42 nM | 0.486 nM | 0.47 nM | 7.71 nM | – | – | –
Oc1ccc2c3c1O[C@H]1c4[nH]c5ccccc5c4C[C@@]4(O)[C@@H](C2)N(CC2CC2)CC[C@]314 [Naltrindole, naltrindole, reference compound] | – | – | 0.85 nM | – | 0.632 nM | 0.636 nM | 29 nM
